Laboratory results from ChEMBL document CHEMBL5233221, “Celastrol: Progresses in structure-modifications, structure-activity relationships, pharmacology and toxicology” (Eur J Med Chem, 2020).
≈ marks a conversion by molar mass, not a printed value.

Tests used:
Bel-7402 = assay: Antiproliferative activity against human Bel-7402 cells assessed as cell growth inhibition; type: functional, cell-based
NCI-H1975 [1] = assay: Antiproliferative activity against gefitinib-resistant human NCI-H1975 cells assessed as cell growth inhibition; type: functional, cell-based
[2] = Antiproliferative activity against human 253J-BV cells assessed as cell growth inhibition; type: functional, cell-based
RCC4 = assay: Antiproliferative activity against human RCC4 cells assessed as cell growth inhibition; type: functional, cell-based
LNCaP = assay: Antiproliferative activity against human LNCaP cells assessed as cell growth inhibition; type: functional, cell-based
Rhizoctonia solani = assay: Antifungal activity against Rhizoctonia solani assessed as inhibition of fungal growth at 10 ug/ml relative to control; type: functional; parameters: scale not given: the % may be the effect or the level left; conditions: dose 10 µg/ml
Mus musculus = assay: Antiinflammatory activity in po dosed asthmatic mouse model; type: functional
DU-145 = assay: Antiproliferative activity against human DU-145 cells assessed as cell growth inhibition; type: functional, cell-based
LP-1 = assay: Antiproliferative activity against human LP-1 cells assessed as cell growth inhibition; type: functional, cell-based
[3] = Antiproliferative activity against human SKNO-1 cells assessed as cell growth inhibition; type: functional, cell-based
HOS = assay: Antiproliferative activity against human HOS cells assessed as cell growth inhibition; type: functional, cell-based
U2OS = assay: Antiproliferative activity against human U2OS cells assessed as cell growth inhibition; type: functional, cell-based
NSCLC = assay: Antiproliferative activity against human NSCLC cells assessed as cell growth inhibition; type: functional, cell-based
A549 = assay: Antiproliferative activity against human A549 cells assessed as cell growth inhibition; type: functional, cell-based
[4] = Antiproliferative activity against human KATO III stomach cancer cell line assessed as cell growth inhibition; type: functional, cell-based
Cytochrome P450 1A2 [5] = target: T1, Cytochrome P450 1A2 (Rattus norvegicus, UniProt P04799); assay: Inhibition of rat CYP1A2
SCC-38 = assay: Antiproliferative activity against human SCC-38 cells assessed as cell growth inhibition; type: functional, cell-based
MKN-28 = assay: Antiproliferative activity against human MKN-28 cells assessed as cell growth inhibition; type: functional, cell-based
MKN-45 = assay: Antiproliferative activity against human MKN-45 cells assessed as cell growth inhibition; type: functional, cell-based
HeLa = assay: Antiproliferative activity against human HeLa cells assessed as cell growth inhibition; type: functional, cell-based
MM1.S = assay: Antiproliferative activity against human MM1.S cells assessed as cell growth inhibition; type: functional, cell-based
AGS = assay: Antiproliferative activity against human AGS cells assessed as cell growth inhibition; type: functional, cell-based
Cytochrome P450 2C11 [6] = target: T2, Cytochrome P450 2C11 (Rattus norvegicus, UniProt P08683); assay: Binding affinity to rat Cyp2c11; type: ADME
U-266 = assay: Antiproliferative activity against human U-266 cells assessed as cell growth inhibition; type: functional, cell-based
[7] = test system: Colletotrichum gloeosporioides; assay: Antifungal activity against Glomerella cingulata assessed as inhibition of fungal growth at 10 ug/ml relative to control; type: functional; parameters: scale not given: the % may be the effect or the level left; conditions: dose 10 µg/ml
C3A = assay: Antiproliferative activity against human C3A cells assessed as cell growth inhibition; type: functional, cell-based
[8] = Toxicity in wild-type Zebrafish embryos assessed as lethal effect; parameters: species or system Danio rerio; conditions: in vivo
[9] = Antiproliferative activity against human Renal cancer tumor cell line assessed as cell growth inhibition; type: functional, cell-based
[10] = Antiproliferative activity against human 95-D cells assessed as cell growth inhibition; type: functional, cell-based
Kasumi 1 = assay: Antiproliferative activity against human Kasumi 1 cells assessed as cell growth inhibition; type: functional, cell-based
U-251 = assay: Antiproliferative activity against human U-251MG cells assessed as cell growth inhibition; type: functional, cell-based
HepG2 = assay: Antiproliferative activity against human HepG2 cells assessed as cell growth inhibition; type: functional, cell-based
NCI-H460 = assay: Antiproliferative activity against human NCI-H460 cells assessed as cell growth inhibition; type: functional, cell-based
[11] = Antiproliferative activity against human U373 MG cells assessed as cell growth inhibition; type: functional, cell-based, U-373MG ATCC
K562 = assay: Antiproliferative activity against human K562 cells assessed as cell growth inhibition; type: functional, cell-based
[12] = Toxicity in wild-type Zebrafish embryos measured after 48 hrs; parameters: species or system Danio rerio
A2780 = assay: Antiproliferative activity against human A2780 cells assessed as cell growth inhibition; type: functional, cell-based
NCI-H1650 = assay: Antiproliferative activity against human NCI-H1650 cells assessed as cell growth inhibition; type: functional, cell-based
MG-63 = assay: Antiproliferative activity against human MG-63 cells assessed as cell growth inhibition; type: functional, cell-based
RPMI-8226 [13] = assay: Antiproliferative activity against doxorubicin resistant human RPMI-8226 cells assessed as cell growth inhibition; type: functional, cell-based
Erysiphales [14] = assay: Antifungal activity against powdery mildew assessed as curative effects at 100 ug/ml relative to control; type: functional; conditions: dose 100 µg/ml
Erysiphales [15] = assay: Antifungal activity against powdery mildew assessed as preventive effects at 100 ug/ml relative to control; type: functional; conditions: dose 100 µg/ml
SK-OV-3 = assay: Antiproliferative activity against human SK-OV-3 cells assessed as cell growth inhibition; type: functional, cell-based
Cytochrome P450 3A2 [16] = target: T3, Cytochrome P450 3A2 (Rattus norvegicus, UniProt P05183); assay: Binding affinity to rat CYP3A2
[17] = Toxicity in wild-type Zebrafish embryos measured after 72 hrs; parameters: species or system Danio rerio
Cytochrome P450 3A2 [18] = target: T3, Cytochrome P450 3A2; assay: Inhibition of rat CYP3A2
U-937 = assay: Antiproliferative activity against human U-937 cells assessed as cell growth inhibition; type: functional, cell-based
[19] = Antiproliferative activity against human YCC-2 cells assessed as cell growth inhibition; type: functional, cell-based
SK-MEL-28 = assay: Antiproliferative activity against human SK-MEL-28 cells assessed as cell growth inhibition; type: functional, cell-based
[20] = Antiproliferative activity against human Nasopharyngeal carcinoma cell line assessed as cell growth inhibition; type: functional, cell-based
MCF7 = assay: Antiproliferative activity against human MCF7 cells assessed as cell growth inhibition; type: functional, cell-based
[21] = target: UDP-glucuronosyltransferase 1A6 (Homo sapiens, UniProt P19224); assay: Binding affinity to UGT1A6 (unknown origin) assessed as inhibition constant
HCC827 = assay: Antiproliferative activity against human HCC827 cells assessed as cell growth inhibition; type: functional, cell-based
[22] = Antiproliferative activity against human SPCA1 cells assessed as cell growth inhibition; type: functional, cell-based
Staphylococcus aureus = assay: Antibacterial activity against Staphylococcus aureus assessed as inhibition of bacterial growth; type: functional
Cytochrome P450 1A2 [23] = target: T1, Cytochrome P450 1A2; assay: Binding affinity to rat CYP1A2
SCC-4 = assay: Antiproliferative activity against human SCC-4 cells assessed as cell growth inhibition; type: functional, cell-based
Huh-7 = assay: Antiproliferative activity against human Huh-7 cells assessed as cell growth inhibition; type: functional, cell-based
KBM5 [24] = assay: Antiproliferative activity against human KBM5 cells expressing Bcr-Abl harboring T315I mutant assessed as cell growth inhibition; type: functional, cell-based
NCI-H929 = assay: Antiproliferative activity against human NCI-H929 cells assessed as cell growth inhibition; type: functional, cell-based
NCI-H1299 = assay: Antiproliferative activity against human NCI-H1299 cells assessed as cell growth inhibition; type: functional, cell-based
PC-3 = assay: Antiproliferative activity against human PC-3 cells assessed as cell growth inhibition; type: functional, cell-based
SW13 = assay: Antiproliferative activity against human SW13 cells assessed as cell growth inhibition; type: functional, cell-based
NCI-H1975 [25] = assay: Antiproliferative activity against human NCI-H1975 cells assessed as cell growth inhibition; type: functional, cell-based
[26] = Antiproliferative activity against human KU-7 cells assessed as cell growth inhibition; type: functional, cell-based; conditions: KU7
UMSCC1 = assay: Antiproliferative activity against human UMSCC1 cells assessed as cell growth inhibition; type: functional, cell-based
Cytochrome P450 2C11 [27] = target: T2, Cytochrome P450 2C11; assay: Inhibition of rat Cyp2c11; type: ADME
RPMI-8226 [28] = assay: Antiproliferative activity against human RPMI-8226 cells assessed as cell growth inhibition; type: functional, cell-based
[29] = Antiproliferative activity against human GLC-82 cells assessed as cell growth inhibition; type: functional, cell-based; conditions: GLC82
SAOS-2 = assay: Antiproliferative activity against human SAOS-2 cells assessed as cell growth inhibition; type: functional, cell-based
NCI-H2228 = assay: Antiproliferative activity against human NCI-H2228 cells assessed as cell growth inhibition; type: functional, cell-based
[30] = target: UDP-glucuronosyltransferase 2B7 (Homo sapiens, UniProt P16662); assay: Binding affinity to UGT2B7 (unknown origin) assessed as inhibition constant
KBM5 [31] = assay: Antiproliferative activity against human KBM5 cells assessed as cell growth inhibition; type: functional, cell-based
[32] = Antiproliferative activity against human MM1.R cells assessed as cell growth inhibition; type: functional, cell-based; conditions: MM.1R
RPMI-8226 [33] = assay: Antiproliferative activity against bortezomib resistant human RPMI-8226 cells assessed as cell growth inhibition; type: functional, cell-based
MDA-MB-231 = assay: Antiproliferative activity against human MDA-MB-231 cells assessed as cell growth inhibition; type: functional, cell-based
[34] = Antiproliferative activity against dog CL-1 cells assessed as cell growth inhibition; type: functional, cell-based; conditions: Canis lupus familiaris

T1 sequence (P04799 whole entry): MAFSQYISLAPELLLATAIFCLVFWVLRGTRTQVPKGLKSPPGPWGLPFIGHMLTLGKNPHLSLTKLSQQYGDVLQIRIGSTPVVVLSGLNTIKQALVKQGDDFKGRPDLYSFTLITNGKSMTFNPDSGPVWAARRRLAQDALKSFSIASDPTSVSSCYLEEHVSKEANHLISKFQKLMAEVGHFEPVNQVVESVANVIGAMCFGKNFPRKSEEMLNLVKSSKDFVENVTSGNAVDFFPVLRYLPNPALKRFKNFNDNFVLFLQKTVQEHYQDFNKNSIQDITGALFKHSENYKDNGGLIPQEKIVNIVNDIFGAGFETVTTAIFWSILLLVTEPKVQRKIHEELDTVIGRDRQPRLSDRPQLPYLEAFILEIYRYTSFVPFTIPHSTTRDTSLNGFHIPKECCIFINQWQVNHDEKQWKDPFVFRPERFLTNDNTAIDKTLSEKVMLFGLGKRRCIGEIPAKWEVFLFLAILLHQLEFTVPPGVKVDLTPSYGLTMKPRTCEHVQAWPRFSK
T3 sequence (P05183 whole entry): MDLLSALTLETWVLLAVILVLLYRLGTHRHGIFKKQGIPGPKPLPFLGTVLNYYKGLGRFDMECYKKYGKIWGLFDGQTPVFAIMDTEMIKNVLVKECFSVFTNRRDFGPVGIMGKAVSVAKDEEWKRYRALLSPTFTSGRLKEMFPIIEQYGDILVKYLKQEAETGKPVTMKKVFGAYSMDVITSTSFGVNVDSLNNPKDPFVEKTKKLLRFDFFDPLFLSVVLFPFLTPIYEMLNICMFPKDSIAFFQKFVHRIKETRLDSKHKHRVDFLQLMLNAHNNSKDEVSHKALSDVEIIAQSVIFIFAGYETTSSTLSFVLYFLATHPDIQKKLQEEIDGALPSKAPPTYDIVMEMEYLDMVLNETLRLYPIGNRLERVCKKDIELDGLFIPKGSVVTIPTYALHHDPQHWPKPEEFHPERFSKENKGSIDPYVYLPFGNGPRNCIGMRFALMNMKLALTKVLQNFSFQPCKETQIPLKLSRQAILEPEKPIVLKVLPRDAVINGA
T2 sequence (P08683 whole entry): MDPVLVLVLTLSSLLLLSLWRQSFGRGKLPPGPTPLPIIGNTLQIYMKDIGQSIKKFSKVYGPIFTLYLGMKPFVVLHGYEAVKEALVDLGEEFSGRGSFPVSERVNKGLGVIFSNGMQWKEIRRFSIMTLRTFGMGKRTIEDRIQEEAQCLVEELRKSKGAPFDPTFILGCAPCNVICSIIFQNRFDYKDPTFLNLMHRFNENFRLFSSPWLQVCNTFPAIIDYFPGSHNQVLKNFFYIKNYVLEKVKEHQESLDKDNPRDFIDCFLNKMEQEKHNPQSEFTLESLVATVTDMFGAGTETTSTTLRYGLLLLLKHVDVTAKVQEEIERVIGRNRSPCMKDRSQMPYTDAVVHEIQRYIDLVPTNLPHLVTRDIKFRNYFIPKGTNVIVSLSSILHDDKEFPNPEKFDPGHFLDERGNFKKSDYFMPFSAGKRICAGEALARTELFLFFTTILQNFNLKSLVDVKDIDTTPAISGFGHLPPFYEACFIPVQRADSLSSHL
Chain of UDP-glucuronosyltransferase 1A6 (P19224 whole entry): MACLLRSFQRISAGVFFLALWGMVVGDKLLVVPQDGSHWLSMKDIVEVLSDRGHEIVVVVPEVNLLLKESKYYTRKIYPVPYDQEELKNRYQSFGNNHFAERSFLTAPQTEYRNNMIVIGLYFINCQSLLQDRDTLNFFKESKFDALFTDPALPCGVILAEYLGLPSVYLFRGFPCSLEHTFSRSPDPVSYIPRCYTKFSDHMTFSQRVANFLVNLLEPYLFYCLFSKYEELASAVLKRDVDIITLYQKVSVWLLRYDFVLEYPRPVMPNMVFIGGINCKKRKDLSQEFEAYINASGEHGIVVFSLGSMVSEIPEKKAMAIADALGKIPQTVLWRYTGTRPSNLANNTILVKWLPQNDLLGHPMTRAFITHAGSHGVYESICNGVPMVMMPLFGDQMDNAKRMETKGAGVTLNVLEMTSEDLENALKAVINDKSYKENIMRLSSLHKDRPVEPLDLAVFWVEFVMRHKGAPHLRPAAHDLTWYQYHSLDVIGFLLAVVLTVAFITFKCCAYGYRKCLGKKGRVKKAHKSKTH
Chain of UDP-glucuronosyltransferase 2B7 (P16662 whole entry): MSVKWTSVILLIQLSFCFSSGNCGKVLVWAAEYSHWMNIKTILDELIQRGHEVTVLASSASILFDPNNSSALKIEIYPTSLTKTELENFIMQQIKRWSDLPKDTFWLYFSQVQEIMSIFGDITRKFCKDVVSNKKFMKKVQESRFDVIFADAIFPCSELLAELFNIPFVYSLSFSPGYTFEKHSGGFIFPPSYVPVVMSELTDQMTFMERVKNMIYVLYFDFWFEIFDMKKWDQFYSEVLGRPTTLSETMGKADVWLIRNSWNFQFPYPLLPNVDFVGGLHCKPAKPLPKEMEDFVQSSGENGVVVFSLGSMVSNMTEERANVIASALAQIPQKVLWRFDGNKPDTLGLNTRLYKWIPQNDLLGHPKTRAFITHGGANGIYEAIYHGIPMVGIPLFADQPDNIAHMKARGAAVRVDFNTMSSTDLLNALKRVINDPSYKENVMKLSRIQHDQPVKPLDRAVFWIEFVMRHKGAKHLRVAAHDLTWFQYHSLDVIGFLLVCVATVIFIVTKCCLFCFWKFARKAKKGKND

COC(=O)[C@]1(C)CC[C@]2(C)CC[C@]3(C)C4=CC(c5cn(C)c6cc(Cl)ccc56)c5c(cc(OC)c(OC)c5C)[C@]4(C)CC[C@@]3(C)[C@@H]2C1 (stereo partly drawn)
IC50 (Bel-7402): 10 nM

COC(=O)[C@]1(C)CC[C@]2(C)CC[C@]3(C)C4=CC(c5c[nH]c6cc(C)ccc56)c5c(cc(OC)c(OC)c5C)[C@]4(C)CC[C@@]3(C)[C@@H]2C1 (stereo partly drawn)
IC50 (Bel-7402): 20 nM

CC1=C(O)C(=O)C=C2C1=CC=C1[C@@]2(C)CC[C@@]2(C)[C@@H]3C[C@](C)(C(=O)O)CC[C@]3(C)CC[C@]12C [CELASTROL]
IC50 (NCI-H1975 [1]): 600 nM | IC50 [2]: 930 nM | IC50 (RCC4): 1880 nM | IC50 (LNCaP): 1760 nM | Activity (Rhizoctonia solani): 62.6% | LD50 (Mus musculus): 20.5 mg/kg | IC50 (DU-145): 1480 nM | IC50 (LP-1): 880 nM | IC50 [3]: 1300 nM | IC50 (HOS): 2550 nM | IC50 (U2OS): 2110 nM | IC50 (NSCLC): 1480 nM | IC50 (A549): 1990 nM | IC50 [4]: 540 nM | IC50 (Cytochrome P450 1A2 [5]): 52800 nM | IC50 (SCC-38): 1700 nM | IC50 (MKN-28): 2300 nM | IC50 (MKN-45): 3400 nM | IC50 (HeLa): 1900 nM | IC50 (MM1.S): 630 nM | IC50 (AGS): 250 nM | Ki (Cytochrome P450 2C11 [6]): 7050 nM | IC50 (U-266): 470 nM | Activity [7]: 62.6% | IC50 (C3A): 3600 nM | LC50 [8]: 1400 nM | IC50 [9]: 4400 nM | IC50 [10]: 1800 nM | IC50 (Kasumi 1): 2200 nM | IC50 (U-251): 690 nM | IC50 (HepG2): 2400 nM | IC50 (NCI-H460): 2200 nM | IC50 [11]: 2000 nM | IC50 (K562): 400 nM | EC50 at 48 h [12]: 900 nM | IC50 (A2780): 2110 nM | IC50 (NCI-H1650): 790 nM | IC50 (MG-63): 1970 nM | IC50 (RPMI-8226 [13]): 520 nM | Activity (Erysiphales [14]): 45.4% | Activity (Erysiphales [15]): 80.5% | IC50 (SK-OV-3): 2290 nM | Ki (Cytochrome P450 3A2 [16]): 14200 nM | EC50 at 72 h [17]: 700 nM | IC50 (Cytochrome P450 3A2 [18]): 23200 nM | IC50 (U-937): 2000 nM | IC50 [19]: 500 nM | IC50 (SK-MEL-28): 1720 nM | IC50 [20]: 1000 nM | IC50 (MCF7): 1580 nM | Ki [21]: 490 nM | IC50 (HCC827): 1300 nM | IC50 [22]: 1800 nM | MIC (Staphylococcus aureus): 0.5 µg/mL (≈ 1.11 µM) | Ki (Cytochrome P450 1A2 [23]): 39200 nM | IC50 (SCC-4): 2800 nM | IC50 (Huh-7): 4700 nM | IC50 (KBM5 [24]): 520 nM | IC50 (NCI-H929): 310 nM | IC50 (NCI-H1299): 1490 nM | IC50 (PC-3): 1520 nM | IC50 (SW13): 100 nM | IC50 (NCI-H1975 [25]): 1660 nM | IC50 [26]: 1130 nM | IC50 (UMSCC1): 760 nM | IC50 (Cytochrome P450 2C11 [27]): 10200 nM | IC50 (RPMI-8226 [28]): 520 nM | IC50 [29]: 1080 nM | IC50 (SAOS-2): 1050 nM | IC50 (NCI-H2228): 1950 nM | Ki [30]: 45 nM | IC50 (KBM5 [31]): 500 nM | IC50 [32]: 520 nM | IC50 (RPMI-8226 [33]): 730 nM | IC50 (MDA-MB-231): 670 nM | IC50 [34]: 1540 nM
